Reference: patent US10945969B2, “Compositions containing thymohydroquinone and their method of preparation” (SAMI LABS LIMITED, priority 2017, dated 2021)
Values belong to the molecule of their own block, whether it stands above or below them.

Assays:
[1] = compared with thymoquinone; cited from earlier work
[2] = Long term stability study; format: physicochemical
[3] = Accelerated stability study; format: physicochemical; conditions: for THQ content by GC (%) / Difference in THQ content (%) / Percentage difference in THQ / TQ content by GC (%) / Difference in TQ content / Percentage difference in TQ: accelerated stability
[4] = compared with thymoquinone; cited from earlier work; remark: listed apart in the source
[5] = over the accelerated stability study

THQ content by GC (%) ([2]; 3rd month): 0.095%
Difference in THQ content ([2]; 3rd month vs initial): 0.062%
Percentage difference in THQ ([2]; 3rd month vs initial): +187.88%
THQ content by GC (%) ([2]; 6th month): 0.138%
Difference in THQ content ([2]; 6th month vs initial): 0.105%
Percentage difference in THQ ([2]; 6th month vs initial): +318.18%
Difference in THQ content ([2]; Initial (0 Month)): 0%
Percentage difference in THQ ([2]; Initial (0 Month)): 0%
THQ content by GC (%) ([2]; Initial (0 Month)): 0.033%
THQ content by GC (%) ([3]; 1st month): 0.037%
Difference in THQ content (%) ([3]; 1st month vs initial): 0.004%
Percentage difference in THQ ([3]; 1st month vs initial): +12.12%
THQ content by GC (%) ([3]; 2nd month): 0.041%
Difference in THQ content (%) ([3]; 2nd month vs initial): 0.008%
Percentage difference in THQ ([3]; 2nd month vs initial): +24.24%
THQ content by GC (%) ([3]; 3rd month): 0.092%
Difference in THQ content (%) ([3]; 3rd month vs initial): 0.059%
Percentage difference in THQ ([3]; 3rd month vs initial): +178.78%
THQ content by GC (%) ([3]; 6th month): 0.120%
Difference in THQ content (%) ([3]; 6th month vs initial): 0.087%
Percentage difference in THQ ([3]; 6th month vs initial): +263.63%
Difference in THQ content (%) ([3]; Initial (0 month)): 0%
Percentage difference in THQ ([3]; Initial (0 month)): 0%
THQ content by GC (%) ([3]; Initial (0 month)): 0.033%
thymohydroquinone quantity, trend [3, 5]: gradual increase
Compound: Cc1cc(O)c(C(C)C)cc1O [THQ, thymohydroquinone]
anti-inflammatory potential [1]: more potent
antioxidant potential [4]: more potent

TQ content by GC (%) ([2]; 3rd month): 0.643%
Difference in TQ content ([2]; 3rd month vs initial): 0.09%
Percentage difference in TQ ([2]; 3rd month vs initial): −12.27%
TQ content by GC (%) ([2]; 6th month): 0.634%
Difference in TQ content ([2]; 6th month vs initial): 0.099%
Percentage difference in TQ ([2]; 6th month vs initial): −13.50%
Difference in TQ content ([2]; Initial (0 Month)): 0%
Percentage difference in TQ ([2]; Initial (0 Month)): 0%
TQ content by GC (%) ([2]; Initial (0 Month)): 0.733%
TQ content by GC (%) ([3]; 1st month): 0.717%
Difference in TQ content ([3]; 1st month vs initial): 0.016%
Percentage difference in TQ ([3]; 1st month vs initial): −2.18%
TQ content by GC (%) ([3]; 2nd month): 0.706%
Difference in TQ content ([3]; 2nd month vs initial): 0.027%
Percentage difference in TQ ([3]; 2nd month vs initial): −3.68%
TQ content by GC (%) ([3]; 3rd month): 0.622%
Difference in TQ content ([3]; 3rd month vs initial): 0.111%
Percentage difference in TQ ([3]; 3rd month vs initial): −15.14%
TQ content by GC (%) ([3]; 6th month): 0.548%
Difference in TQ content ([3]; 6th month vs initial): 0.185%
Percentage difference in TQ ([3]; 6th month vs initial): −25.23%
Difference in TQ content ([3]; Initial (0 month)): 0%
Percentage difference in TQ ([3]; Initial (0 month)): 0%
TQ content by GC (%) ([3]; Initial (0 month)): 0.733%
content of thymoquinone, trend [3, 5]: decrease
Compound: CC1=CC(=O)C(C(C)C)=CC1=O [TQ, thymoquinone]
